Experimental data as given in US20070105790A1, “Pancreatic cancer treatment using Na+/K+ ATPase inhibitors” (Bionaut Pharmaceuticals, Inc., priority 2004, published 2007).
Converted amounts (≈) assume the structure as drawn. Read-outs that look alike come from different tables or passages of the source.

Key:
[1] = tested on: cancer of the pancreas; settings: previously untreated patients; cited from earlier work
[2] = tested on: pancreatic cancer; settings: cited from earlier work
[3] = tested on: cancer cell lines; assay: IC50 across several different cancer cell lines; assay type: cell-based; settings: called predicted
[4] = tested on: VEGF; assay: VEGF secretion by tumor cells; assay type: cell-based; settings: FIG. 5
[5] = tested on: cats; settings: cited from earlier work
[6] = cited from earlier work
[7] = tested on: HIF-1α; assay: HIF-1α induced by L-mimosone under normoxia in Hep3B cells; assay type: cell-based
Method: Abundance of HIF-1α and β-actin was determined by western blotting.

[8] = tested on: A549 Sentinel Line; assay: Sentinel Line beta-galactosidase reporter assay (A549); assay type: cell-based; settings: 40 hrs; for reporter activity, Gemcitabine-induced stress response: A549 sentinel line, FACS, FIG. 7; for cell death / reporter activity: Sentinel Lines; for reporter activity: FIG. 6
Method: The expression level of beta-galactosidase gene in sentinel lines was determined by using a fluorescent substrate fluorescein di-B-D-Galactopyranside (FDG, Marker Gene Tech, #M0250) introduced into cells by hypotonic shock. Cleavage by beta-galactosidase results in the production of free fluorescein, which is unable to cross the plasma membrane and is trapped inside the beta-gal positive cells. Briefly, the cells to be analyzed are trypsinized, and resuspended in PBS containing 2 mM FDG (diluted from a 10 mM stock prepared in 8:1:1 mixture of water: ethanol: DMSO). The cells were then shocked for 4 minutes at 37° C. and transferred to FACS tubes containing cold 1×PBS on ice. Samples were kept on ice for 30 minutes and analyzed by FACS in FL1 channel.
Sentinel Line cells with beta-galactosidase reporter gene were plated at 1×10^5 cells/10 cm dish. […] After 40 hrs, the cells were trypsinized and the expression level of reporter gene was determined by FDG loading.
The reporter activity was measured by FACS analysis.

[9] = cited from earlier work; remark: listed apart in the source
[10] = tested on: cancer of the pancreas; settings: previously treated with 5-FU; cited from earlier work
[11] = tested on: pancreatic cancer; settings: cited from earlier work; remark: listed apart in the source
[12] = tested on: rat mammary tumors induced by DMBA; settings: relative to control group; cited from earlier work
[13] = tested on: pancreatic carcinoma cells carrying a K-Ras mutation; settings: cited from earlier work
[14] = tested on: pancreatic lesions; settings: cited from earlier work
[15] = biological target: farnesyl protein transferase (FPTase) (Homo sapiens, UniProt P49354+P49356); settings: cited from earlier work
Chain of farnesyl protein transferase (FPTase) (P49356 whole entry, one chain of several): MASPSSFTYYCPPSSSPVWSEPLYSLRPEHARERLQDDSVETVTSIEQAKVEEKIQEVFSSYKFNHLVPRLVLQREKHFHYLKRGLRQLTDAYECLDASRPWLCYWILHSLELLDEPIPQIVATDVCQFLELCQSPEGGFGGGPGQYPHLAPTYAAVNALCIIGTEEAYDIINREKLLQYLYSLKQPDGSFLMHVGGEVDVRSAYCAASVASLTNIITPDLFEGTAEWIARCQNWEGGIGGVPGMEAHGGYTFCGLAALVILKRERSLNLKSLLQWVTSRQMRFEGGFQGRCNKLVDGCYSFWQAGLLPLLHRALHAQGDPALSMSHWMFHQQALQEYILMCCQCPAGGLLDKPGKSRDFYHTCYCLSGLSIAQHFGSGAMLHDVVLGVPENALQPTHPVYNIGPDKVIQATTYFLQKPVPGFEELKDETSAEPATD

[16] = tested on: pancreatic tumors; settings: cited from earlier work
[17] = biological target: geranylgeranyl protein transferase (GGPTase) (Homo sapiens, UniProt P49354+P53609); settings: cited from earlier work
Chain of geranylgeranyl protein transferase (GGPTase) (P53609 whole entry, one chain of several): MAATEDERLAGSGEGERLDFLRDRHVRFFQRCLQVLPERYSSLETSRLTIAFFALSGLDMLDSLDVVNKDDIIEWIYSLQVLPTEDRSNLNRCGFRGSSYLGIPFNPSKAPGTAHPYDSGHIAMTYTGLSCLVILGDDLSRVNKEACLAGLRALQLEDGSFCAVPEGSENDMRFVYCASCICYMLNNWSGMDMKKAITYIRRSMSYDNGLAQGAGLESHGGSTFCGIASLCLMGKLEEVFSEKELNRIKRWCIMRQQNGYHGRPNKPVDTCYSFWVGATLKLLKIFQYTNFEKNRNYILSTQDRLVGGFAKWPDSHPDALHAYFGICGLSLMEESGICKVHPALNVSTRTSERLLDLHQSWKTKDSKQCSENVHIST

[18] = tested on: end-stage pancreatic cancer; settings: cited from earlier work
[19] = tested on: advanced pancreatic cancer; settings: in vivo; cited from earlier work
[20] = tested on: pancreatic cancer; settings: 40 patients; cited from earlier work
[21] = tested on: C38 colon adenocarcinoma and PO3 pancreatic ductal adenocarcinoma; settings: in vivo; cited from earlier work

Compound: O=c1[nH]cc(F)c(=O)[nH]1 [5-FU, 5-fluorouracil]
- patients alive at 1 year after starting therapy [1]: 1 in 50
- response rate [2]: less than 20%

Compound: C[C@@H]1O[C@@H](O[C@H]2C[C@@H](O)[C@]3(CO)[C@H]4[C@H](O)C[C@]5(C)[C@@H](C6=CC(=O)OC6)CC[C@]5(O)[C@@H]4CC[C@]3(O)C2)[C@H](O)[C@H](O)[C@H]1O [BNC-1, ouabain]
- IC50 [3]: 9 to 35 ng/mL (≈ 0.0154 to 0.0599 µM)
- secretion of the angiogenesis factor VEGF [4]: inhibits
- toxic serum concentration at day 1 (mice): about 50+21 ng/ml
- therapeutic serum concentration required to achieve >60% TGI (steady state delivery in mice): about 20+15 ng/ml
- toxicity, duodenal administration [5]: 5.3 mg/kg

Compound: C[C@@H]1OC(OC2C=C3CCC4C(CC[C@]5(C)[C@@H](c6ccc(=O)oc6)CC[C@]45O)[C@@]3(C)CC2)[C@H](O)[C@H](O)[C@H]1O (stereo partly drawn) [BNC-4, proscillaridin]
- drug and metabolites excreted by the bile ([6]; in vivo): Greater than 99%
- measurable unconjugated drug as share of administered quantity ([6]; oral administration): 7%
- time of second, longer-lasting peak ([6]; oral): about 1 hour
- time of third peak after dosing ([6]; oral): about 10 hours
- HIF-1α accumulation by L-mimosone ([7]; 200 μM L-mimosone, 18 h): eliminated HIF-1α accumulation
- HIF-1α accumulation by L-mimosone ([7]; at the low concentration tested): did not appear to have an effect
- reporter activity, Gemcitabine-induced stress response [8]: significantly shift the reporter activity to the left
- tolerance in cancer patients ([9]; 0.5 mg/d i.v. for 4 d before surgery, 50 patients): well tolerated by all cancer patients
- patients taken off treatment for negative side effects ([9]; 1067 patients, up to 3 years): 0.7%
- reported cases in which therapy could be resumed ([9]; after a brief hiatus): > 95%
- doses producing typical intoxication symptoms ([9]; healthy individuals): above 4 mg p.o./d
- IC50 [3]: 2 to 8 ng/mL (≈ 0.00377 to 0.0151 µM)
- secretion of the angiogenesis factor VEGF [4]: inhibits
- serum levels at the maximum toxic dose (MTD) (mice): about 518 (±121) ng/ml
- toxic serum concentration at day 1 (mice): about 518+121 ng/ml
- steady state serum level at which anti-tumor activity was observed (xenograft nude mouse model): about 50 ng/mL
- toxicity, duodenal administration [5]: 1.05 mg/kg

Compound: N.N.O=C([O-])C1(C(=O)[O-])CCC1.[Pt+2] [Carboplatin]
- cell death [8]: increases
- reporter activity [8]: increases

Compound: Nc1ccn([C@@H]2O[C@H](CO)[C@@H](O)C2(F)F)c(=O)n1 [Gemcitabine]
- patients alive at 1 year after starting therapy [1]: 1 in 5
- survival of the typical patient [1]: about 6 months
- patients alive at 1 year [10]: 1 in 25
- patients with symptom improvement for at least 1 month [10]: 1 in 4
- survival of the typical patient [10]: 4 months
- reporter activity, Gemcitabine-induced stress response [8]: elevated reporter activity
- patients with clinical benefit ([11]; gemcitabine alone): 20-30%
- 1-year survival rate ([11]; human, in vivo): 18%

Compound: CC(C)Cc1ccc(C(C)C(=O)O)cc1 (stereo not drawn) [Ibuprofen]
- reduction in incidence of breast tumors [12]: 40%
- reduction in multiplicity of breast tumors [12]: 52%

Compound: COc1cc2ncnc(Nc3ccc(F)c(Cl)c3)c2cc1OCCCN1CCOCC1 [Iressa]
- reporter activity [8]: reduction in reporter activity

Compound: C=C(C)[C@H]1CC=C(C)CC1 [Limonene]
- growth reduction [13]: approximately 50%

Compound: CN(C)C(=N)N=C(N)N [Metformin]
- hyperplastic and premalignant lesions ([14]; 8.6 in high-fat group): 1.8 lesions per hamster
- malignant lesions ([14]; drinking water for life, 50% in high-fat group): none were found

Compound: C=C(C)[C@@H]1CC=C(CO)CC1 [Perillyl alcohol]
- inhibition of Ras prenylation [15]: 17%
- tumors completely regressed ([16]; hamster, in vivo): 16%
- growth of pancreatic tumors ([16]; versus controls): less than half that of controls
- inhibition of RhoA prenylation [17]: 28%

Compound: CC[C@@]1(O)C(=O)OCc2c1cc1n(c2=O)Cc2cc3c([N+](=O)[O-])cccc3nc2-1 [Rubitecan, 9-nitrocamptothecin]
- nonresponders ([18]; 60 patients): 36.6%
- patients who responded favorably ([18]; 60 patients): 31.7%
- patients with stabilized disease ([18]; 60 patients): 31.7%
- survival ([18]; nonresponders): 6.8 months
- median survival ([18]; responders): 18.6 months
- median survival ([18]; stabilized disease): 9.7 months

Compound: Cn1c(=O)c2c(ncn2C)n(C)c1=O [caffeine]
- median duration of survival [19]: 5 months
- patients with objective responses [19]: 5.5%

Compound: CC(=O)O[C@@]12CO[C@@H]1C[C@H](O)[C@@]1(C)C(=O)[C@H](O)C3=C(C)[C@@H](OC(=O)[C@H](O)[C@@H](NC(=O)OC(C)(C)C)c4ccccc4)C[C@@](O)([C@@H](OC(=O)c4ccccc4)[C@H]21)C3(C)C [docetaxel, Docetaxel]
- median duration of response [20]: 5.1 months
- partial response [20]: 15%
- stable disease [20]: 38%
- complete regressions [21]: 80%

Compound: O=C1c2c(O)ccc(O)c2C(=O)c2c(NCCNCCO)ccc(NCCNCCO)c21 [mitoxanthrone, mitoxantrone]
- cell death [8]: increases
- reporter activity [8]: increases

Compound: CC(=O)O[C@H]1C(=O)[C@@]2(C)[C@H]([C@H](OC(=O)c3ccccc3)[C@]3(O)C[C@H](OC(=O)[C@H](O)[C@@H](NC(=O)c4ccccc4)c4ccccc4)C(C)=C1C3(C)C)[C@]1(OC(C)=O)CO[C@@H]1C[C@@H]2O [paclitaxel]
- cell death [8]: increases
- reporter activity [8]: increases
